These compounds were tested against T1, A-Raf kinase (Homo sapiens, UniProt P10398, Y301D/Y302D) (assay: Biochemical assay for A-Raf.1 (coupled pyruvate kinase/lactate dehydrogenase)). Settings: read-out: ARAF.1 IC50.
T1 construct: purchased Sigma
Summary of the method: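 IC50 values came from four-parameter sigmoidal fits of percent inhibition, using rates over the 4 to 5 h window of continuous A340 readings (6 h, 30° C). The coupled PK/LDH system tracked NADH oxidation during 5.55 nM A-Raf activity on 30.1 nM MEK at 1 mM ATP, buffer pH 7.5.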

T1 sequence (P10398 with tags, fused parts or gaps Y301D/Y302D): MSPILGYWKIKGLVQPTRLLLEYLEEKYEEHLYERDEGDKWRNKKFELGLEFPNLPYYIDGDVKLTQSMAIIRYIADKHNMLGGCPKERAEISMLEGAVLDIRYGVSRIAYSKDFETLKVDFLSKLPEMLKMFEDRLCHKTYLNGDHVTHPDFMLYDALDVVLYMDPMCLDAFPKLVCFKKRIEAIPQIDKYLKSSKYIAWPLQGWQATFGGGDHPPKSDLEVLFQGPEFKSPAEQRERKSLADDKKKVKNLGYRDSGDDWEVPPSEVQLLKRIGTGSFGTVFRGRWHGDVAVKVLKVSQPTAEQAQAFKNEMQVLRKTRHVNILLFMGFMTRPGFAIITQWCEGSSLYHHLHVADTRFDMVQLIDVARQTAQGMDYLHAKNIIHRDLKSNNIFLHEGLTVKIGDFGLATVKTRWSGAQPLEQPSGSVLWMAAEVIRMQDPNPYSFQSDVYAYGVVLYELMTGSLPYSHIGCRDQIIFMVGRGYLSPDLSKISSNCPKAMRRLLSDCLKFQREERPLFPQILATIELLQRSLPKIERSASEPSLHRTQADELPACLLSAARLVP

IC50, 0.5 to 1 µM:
CC(=O)Nc1cc(-c2cc(-c3cc(NC(=O)NC4CCC(F)(F)CC4)c(F)cc3C)cc(OCCO)n2)ccn1 [Example 63]
Cc1ccc(NC(=O)N2CCC(C(F)(F)F)C2)cc1-c1cccc(-c2cc(NC(=O)C3CC3)ncn2)c1 (stereo not shown) [Example 73]

IC50, 0.1 to 0.5 µM:
Cc1cc(F)c(NC(=O)NCCC(C)(C)C#N)cc1-c1cccc(-c2cc(NC(=O)C3CC3)ncn2)c1 [Example 67]
COC(C)(C)CCNC(=O)Nc1cc(-c2cccc(-c3ccnc(NC(C)=O)c3)c2)c(C)cc1F [Example 71]
Cc1cc(F)c(NC(=O)NCCC2(C)CC2)cc1-c1cc(OCCO)nc(-c2ccnc(NC(=O)C3CC3)c2)c1 [Example 76]

IC50, > 1 µM:
Cc1cc(F)c(NC(=O)NCCC2(C)CC2)cc1-c1cccc(-c2ccnc(NC(=O)C3CC3)c2)c1 [Example 64]
Cc1cc(F)c(NC(=O)NCCC2(C)CC2)cc1-c1cccc(-c2cc(NC(=O)C3CC3)ncn2)c1 [Example 65]
Cc1cc(F)c(NC(=O)NCCC(C)(C)C#N)cc1-c1cccc(-c2ccnc(NC(=O)C3CC3)c2)c1 [Example 66]
Cc1ccc(NC(=O)Nc2ccnc(C(C)(C)C#N)c2)cc1-c1ccnc(-c2ccnc(C(=O)NC3CC3)c2)c1 [Example 68]
CNC(=O)c1cc(-c2cc(-c3cc(NC(=O)Nc4ccnc(C(C)(C)C#N)c4)ccc3C)ccn2)ccn1 [Example 69]
CNC(=O)c1cc(-c2cccc(-c3cc(NC(=O)NCCC(C)(C)OC)c(F)cc3C)c2)ccn1 [Example 72]
Cc1ncc(NC(=O)NCCC(C)(C)F)cc1-c1ccnc(-c2ccnc(NC(=O)C3CC3)c2)c1 [Example 75]
COC(=O)Nc1cc(-c2cc(-c3cc(NC(=O)NCCC4(C)CC4)c(F)cc3C)cc(OCCO)n2)ccn1 [Example 77]
Cc1cc(F)c(NC(=O)NCCC2(C)CC2)cc1-c1ccnc(-c2ccnc3c2CC(=O)N3)c1 [Example 79]
Cc1cc(F)c(NC(=O)NC2CC(C)(C)C2)cc1-c1cc(OCCO)nc(-c2ccnc(NC(=O)C3CC3)c2)c1 [Example 80]
Cc1ncc(NC(=O)NCCC2(C)CC2)cc1-c1nccc(-c2ccnc(NC(=O)C3CC3)c2)n1 [Example 81]

These compounds were tested against T2, C-Raf kinase (Homo sapiens, UniProt P04049, Y340D/Y341D) (assay: Biochemical assay for C-Raf.1 (coupled pyruvate kinase/lactate dehydrogenase)). Settings: read-out: CRAF.1 IC50.
T2 construct: Y340D,; GST (N); purchased Sigma
Summary of the method: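 NADH depletion at 340 nm monitored continuously for 6 h at 30° C, with rates taken over 4–5 h. The coupled pyruvate kinase/lactate dehydrogenase reaction used 1 mM ATP, 30.1 nM MEK substrate and 0.43 nM kinase at pH 7.5. IC50 was fitted sigmoidally from percent inhibition of serially diluted compound.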

T2 sequence (P04049 307-648 Y340D/Y341D): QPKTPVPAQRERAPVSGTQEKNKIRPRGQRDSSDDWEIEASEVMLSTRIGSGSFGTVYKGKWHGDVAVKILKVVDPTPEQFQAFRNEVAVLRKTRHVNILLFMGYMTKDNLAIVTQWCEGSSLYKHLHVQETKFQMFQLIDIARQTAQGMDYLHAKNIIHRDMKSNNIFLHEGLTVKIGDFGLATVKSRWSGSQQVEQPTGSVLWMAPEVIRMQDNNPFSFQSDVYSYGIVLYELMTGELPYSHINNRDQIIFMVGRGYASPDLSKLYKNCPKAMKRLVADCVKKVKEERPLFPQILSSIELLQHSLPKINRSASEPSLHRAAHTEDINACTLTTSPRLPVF

IC50, ≤ 0.1 µM:
CC(=O)Nc1cc(-c2cc(-c3cc(NC(=O)NC4CCC(F)(F)CC4)c(F)cc3C)cc(OCCO)n2)ccn1 [Example 63]
Cc1cc(F)c(NC(=O)NCCC2(C)CC2)cc1-c1cccc(-c2ccnc(NC(=O)C3CC3)c2)c1 [Example 64]
Cc1cc(F)c(NC(=O)NCCC2(C)CC2)cc1-c1cccc(-c2cc(NC(=O)C3CC3)ncn2)c1 [Example 65]
Cc1cc(F)c(NC(=O)NCCC(C)(C)C#N)cc1-c1cccc(-c2ccnc(NC(=O)C3CC3)c2)c1 [Example 66]
Cc1cc(F)c(NC(=O)NCCC(C)(C)C#N)cc1-c1cccc(-c2cc(NC(=O)C3CC3)ncn2)c1 [Example 67]
Cc1ccc(NC(=O)Nc2ccnc(C(C)(C)C#N)c2)cc1-c1ccnc(-c2ccnc(C(=O)NC3CC3)c2)c1 [Example 68]
CNC(=O)c1cc(-c2cc(-c3cc(NC(=O)Nc4ccnc(C(C)(C)C#N)c4)ccc3C)ccn2)ccn1 [Example 69]
COC(C)(C)CCNC(=O)Nc1cc(-c2cccc(-c3ccnc(NC(C)=O)c3)c2)c(C)cc1F [Example 71]
CNC(=O)c1cc(-c2cccc(-c3cc(NC(=O)NCCC(C)(C)OC)c(F)cc3C)c2)ccn1 [Example 72]
Cc1ccc(NC(=O)N2CCC(C(F)(F)F)C2)cc1-c1cccc(-c2cc(NC(=O)C3CC3)ncn2)c1 (stereo not shown) [Example 73]
Cc1ncc(NC(=O)NCCC(C)(C)F)cc1-c1ccnc(-c2ccnc(NC(=O)C3CC3)c2)c1 [Example 75]
Cc1cc(F)c(NC(=O)NCCC2(C)CC2)cc1-c1cc(OCCO)nc(-c2ccnc(NC(=O)C3CC3)c2)c1 [Example 76]
COC(=O)Nc1cc(-c2cc(-c3cc(NC(=O)NCCC4(C)CC4)c(F)cc3C)cc(OCCO)n2)ccn1 [Example 77]
Cc1cc(F)c(NC(=O)NCCC2(C)CC2)cc1-c1ccnc(-c2ccnc3c2CC(=O)N3)c1 [Example 79]
Cc1cc(F)c(NC(=O)NC2CC(C)(C)C2)cc1-c1cc(OCCO)nc(-c2ccnc(NC(=O)C3CC3)c2)c1 [Example 80]
Cc1ncc(NC(=O)NCCC2(C)CC2)cc1-c1nccc(-c2ccnc(NC(=O)C3CC3)c2)n1 [Example 81]

These compounds were tested against T3, B-Raf (V600E) kinase (Homo sapiens, UniProt P15056, V600E) (assay: Biochemical assay for B-Raf (V600E).1 (coupled pyruvate kinase/lactate dehydrogenase)). Settings: read-out: BRAF V600E.1 IC50.
T3 construct: B-Raf (V600E) residues 416-766 with a; GST (N); purchased SignalChem
Summary of the method: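 IC50 came from four-parameter sigmoidal fits of percent inhibition, using reaction rates over 3-4 h. Continuous A340 reading (6 h, 30 °C) of a pyruvate kinase/lactate dehydrogenase-coupled reaction: B-Raf V600E 0.03 nM, MEK 30.1 nM, ATP 1 mM, Tris pH 7.5, 1% DMSO.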

T3 sequence (P15056 416-766 V600E): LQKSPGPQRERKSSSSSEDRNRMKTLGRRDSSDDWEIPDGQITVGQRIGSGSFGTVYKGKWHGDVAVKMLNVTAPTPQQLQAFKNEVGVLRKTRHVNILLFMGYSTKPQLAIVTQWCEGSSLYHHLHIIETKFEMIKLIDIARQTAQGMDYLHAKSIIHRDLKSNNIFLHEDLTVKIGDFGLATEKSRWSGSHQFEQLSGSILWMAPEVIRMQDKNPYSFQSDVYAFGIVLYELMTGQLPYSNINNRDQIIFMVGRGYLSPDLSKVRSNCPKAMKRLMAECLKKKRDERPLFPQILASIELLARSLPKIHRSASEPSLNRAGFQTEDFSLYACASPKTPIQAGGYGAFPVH

IC50, ≤ 0.1 µM:
CC(=O)Nc1cc(-c2cc(-c3cc(NC(=O)NC4CCC(F)(F)CC4)c(F)cc3C)cc(OCCO)n2)ccn1 [Example 63]
Cc1cc(F)c(NC(=O)NCCC2(C)CC2)cc1-c1cccc(-c2ccnc(NC(=O)C3CC3)c2)c1 [Example 64]
Cc1cc(F)c(NC(=O)NCCC2(C)CC2)cc1-c1cccc(-c2cc(NC(=O)C3CC3)ncn2)c1 [Example 65]
Cc1cc(F)c(NC(=O)NCCC(C)(C)C#N)cc1-c1cccc(-c2ccnc(NC(=O)C3CC3)c2)c1 [Example 66]
Cc1cc(F)c(NC(=O)NCCC(C)(C)C#N)cc1-c1cccc(-c2cc(NC(=O)C3CC3)ncn2)c1 [Example 67]
Cc1ccc(NC(=O)Nc2ccnc(C(C)(C)C#N)c2)cc1-c1ccnc(-c2ccnc(C(=O)NC3CC3)c2)c1 [Example 68]
CNC(=O)c1cc(-c2cc(-c3cc(NC(=O)Nc4ccnc(C(C)(C)C#N)c4)ccc3C)ccn2)ccn1 [Example 69]
COC(C)(C)CCNC(=O)Nc1cc(-c2cccc(-c3ccnc(NC(C)=O)c3)c2)c(C)cc1F [Example 71]
CNC(=O)c1cc(-c2cccc(-c3cc(NC(=O)NCCC(C)(C)OC)c(F)cc3C)c2)ccn1 [Example 72]
Cc1ccc(NC(=O)N2CCC(C(F)(F)F)C2)cc1-c1cccc(-c2cc(NC(=O)C3CC3)ncn2)c1 (stereo not shown) [Example 73]
Cc1ncc(NC(=O)NCCC(C)(C)F)cc1-c1ccnc(-c2ccnc(NC(=O)C3CC3)c2)c1 [Example 75]
Cc1cc(F)c(NC(=O)NCCC2(C)CC2)cc1-c1cc(OCCO)nc(-c2ccnc(NC(=O)C3CC3)c2)c1 [Example 76]
COC(=O)Nc1cc(-c2cc(-c3cc(NC(=O)NCCC4(C)CC4)c(F)cc3C)cc(OCCO)n2)ccn1 [Example 77]
Cc1cc(F)c(NC(=O)NCCC2(C)CC2)cc1-c1ccnc(-c2ccnc3c2CC(=O)N3)c1 [Example 79]
Cc1cc(F)c(NC(=O)NC2CC(C)(C)C2)cc1-c1cc(OCCO)nc(-c2ccnc(NC(=O)C3CC3)c2)c1 [Example 80]
Cc1ncc(NC(=O)NCCC2(C)CC2)cc1-c1nccc(-c2ccnc(NC(=O)C3CC3)c2)n1 [Example 81]

The compounds below were run on Miapaca-2 cells (assay: MiaPaca-2 cell proliferation assay (1), resazurin, 96-well). Settings: Homo sapiens, MIA PaCa-2, inhibition of cell proliferation.
Assay type: cell-based
Summary of the method: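 Three thousand cells per well in DMEM with 10% FBS and 2.5% horse serum exposed to serially diluted compound in triplicate for 67-72 h at 37 °C, 5% CO2. Viability by resazurin (additional 5-6 h), fluorescence ex 540/em 600 nm; IC50 calculated.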

IC50, 1 to 10 µM:
CC(=O)Nc1cc(-c2cc(-c3cc(NC(=O)NC4CCC(F)(F)CC4)c(F)cc3C)cc(OCCO)n2)ccn1 [Example 63]
Cc1cc(F)c(NC(=O)NCCC2(C)CC2)cc1-c1cccc(-c2ccnc(NC(=O)C3CC3)c2)c1 [Example 64]
Cc1cc(F)c(NC(=O)NCCC2(C)CC2)cc1-c1cccc(-c2cc(NC(=O)C3CC3)ncn2)c1 [Example 65]
Cc1cc(F)c(NC(=O)NCCC(C)(C)C#N)cc1-c1cccc(-c2ccnc(NC(=O)C3CC3)c2)c1 [Example 66]
Cc1cc(F)c(NC(=O)NCCC(C)(C)C#N)cc1-c1cccc(-c2cc(NC(=O)C3CC3)ncn2)c1 [Example 67]
Cc1ccc(NC(=O)Nc2ccnc(C(C)(C)C#N)c2)cc1-c1ccnc(-c2ccnc(C(=O)NC3CC3)c2)c1 [Example 68]
CNC(=O)c1cc(-c2cc(-c3cc(NC(=O)Nc4ccnc(C(C)(C)C#N)c4)ccc3C)ccn2)ccn1 [Example 69]
COC(C)(C)CCNC(=O)Nc1cc(-c2cccc(-c3ccnc(NC(C)=O)c3)c2)c(C)cc1F [Example 71]
CNC(=O)c1cc(-c2cccc(-c3cc(NC(=O)NCCC(C)(C)OC)c(F)cc3C)c2)ccn1 [Example 72]
Cc1ccc(NC(=O)N2CCC(C(F)(F)F)C2)cc1-c1cccc(-c2cc(NC(=O)C3CC3)ncn2)c1 (stereo not shown) [Example 73]
Cc1ncc(NC(=O)NCCC(C)(C)F)cc1-c1ccnc(-c2ccnc(NC(=O)C3CC3)c2)c1 [Example 75]
Cc1cc(F)c(NC(=O)NCCC2(C)CC2)cc1-c1cc(OCCO)nc(-c2ccnc(NC(=O)C3CC3)c2)c1 [Example 76]
COC(=O)Nc1cc(-c2cc(-c3cc(NC(=O)NCCC4(C)CC4)c(F)cc3C)cc(OCCO)n2)ccn1 [Example 77]
Cc1cc(F)c(NC(=O)NCCC2(C)CC2)cc1-c1ccnc(-c2ccnc3c2CC(=O)N3)c1 [Example 79]
Cc1cc(F)c(NC(=O)NC2CC(C)(C)C2)cc1-c1cc(OCCO)nc(-c2ccnc(NC(=O)C3CC3)c2)c1 [Example 80]
Cc1ncc(NC(=O)NCCC2(C)CC2)cc1-c1nccc(-c2ccnc(NC(=O)C3CC3)c2)n1 [Example 81]
